Results from US20180303863A1, “Pharmaceutical Composition for Treating STK11-Mutation Cancer Using Cardiac Glycosides” (INDUSTRY-ACADEMIC COOPERATION FOUNDATION SOOKMYUNG WOMEN'S …, priority 2014, published 2018).

Columns and labels:
[1] = system: STK11-mutant lung cancer cell lines (A549, H460, H1993, H1395) and STK11-wild-type lung cancer cell lines (H226, H322M, H82, H524); assay: Cell viability (CellTiter-Blue) in STK11-mutant and STK11-wild-type lung cancer cell lines; assay type: cell-based; conditions: varying concentration, 72 hours; FIG. 5A
Method: NCI-60 lung cancer cell lines (NCI-H460, A549, NCI-H322M, and NCI-H226) were obtained from the U.S. National Cancer Institute (NCI DTP). All cells were grown in an RPMI medium (GIBCO) supplemented with 10% FBS (GIBCO) and penicillin/[…] (GIBCO), and kept at 37° C. in a humidified atmosphere of 5% CO2.
A total of three cardiac glycosides (chemicals) having the structures shown in FIG. 1 were screened in a lung cancer cell line. Digoxin, ouabain, and digitoxin were all purchased from Sigma Aldrich.
(§1) The cells were seeded in 96-well plates at a density of 2,000, 1,000, and 200 cells per well, and cultured for 3, 7, and 14 days, respectively. After 24 hours of seeding, the cells were treated with a chemical diluted with digitoxin and ouabain at working concentrations of 0.05 μM and 0.02 μM, respectively. The cells were again cultured for 72 hours (3 days), 7 days, and 14 days, and then the cell viability was measured using a CellTiter-Blue assay kit.

[2] = system: STK11-mutant cell line (A549) and cell line (A549-STK11) in which STK11 was restored into the wild type; assay: Cell viability (CellTiter-Blue) in A549 versus the STK11-restored A549-STK11 line; assay type: cell-based; conditions: for inhibition of cell growth in lung cancer cell lines A549 and A549-STK11: 96-well plate; for response of the STK11-restored cell line compared to the STK11-mutant cell line (inhibition of cell growth, TiterBlue): FIG. 5B
Method: as §1
In this case, each of a STK11-mutant cell line (A549) and a cell line (A549-STK11) in which STK11 was restored into the wild type were used as the lung cancer cell line.

[3] = system: STK11 mutant cell lines (NCI60 panel); assay: CLEA enrichment analysis of GI50 profiles on the NCI60 panel by STK11 genotype; assay type: cell-based; conditions: MOLT-4, A549, NCI-H460, NCI-H23, SK-MEL-5, DU-145, FIG. 3A
Method: To identify sensitivity patterns of the genotype-specific compounds, a subset of the compounds was selected using a GI50 profile pattern on a CLEA map.
First of all, a −logGI50 value of 8 (that is, GI50=0.01 μM) was chosen as a bipartite cutoff used to determine to which cell lines a compound was sensitive on a NCI60 panel. In this case, the compound was sensitive when the value is greater than 8, and was not sensitive when the value is less than 8.
Next, an enrichment score (an AUC value) was used to select the genotype-specific compounds in a CLEA assay.
An AUC value >80 and a P value <0.01 were used as cutoff values used to determine that a compound had significant sensitivity to certain genotypes. In this example, compounds showing strong potency (that is, a −logGI50 value of 8) to at least one cell line on the NCI60 panel were included.
As a result, a total of three non-overlapping compounds satisfying the above filtering requirements were compiled. Hierarchical clustering of these selected compounds was carried out on a category of STK11 genotypes. In this example, three main groups of compounds showing uniform sensitivity based on the mutant genotypes were identified. Such a cluster of compounds were sensitive to genetic mutations in an STK11 gene.

[4] = system: A549 lung cancer cell line; assay: Mouse tumor xenograft model, A549; assay type: in vivo, athymic nude mice
Method: (§2) After athymic nude mice (Oriental Bio Inc) were purchased, the animal model was prepared according to the standard guidelines provided by the Catholic University of Korea-Institutional Animal Care and Use Committee (CUK-IACUC). A549 or A549-LKB 1 wt were subcutaneously injected (3×10^6 cells/ml) into the above animal model, and divided into three groups: (1) an untreated control group (n=10); (2) a group in which the mice were treated with digoxin at 60 ng/kg/body weight (n=10); (3) a group in which the mice were treated with digoxin at 180 ng/kg/body weight (n=10). Digoxin or a vehicle (1.9% DMSO/10% polyethylene glycol 400/l×PBS: a total volume of 200 μl) was orally administered three times a week for 5 weeks. Then, the diameter of each tumor base was measured, and the size of a tumor was then calculated according to the following equation: Tumor size (mm^3)=(length×width×height×0.52). Also, the mice were monitored until the tumor size reached 1 cm^3, and then the mice were sacrificed, and tumors were extracted from the mice.

[5] = system: cell line (A549-LKB1wt) in which STK11 was restored into the wild type; assay: Mouse tumor xenograft model, A549-LKB1wt (STK11 restored); assay type: in vivo, athymic nude mice; conditions: oral, three times a week for 5 weeks, 60 or 180 ng/kg/body weight; FIG. 10B
Method: as §2

Structure (SMILES): C[C@H]1O[C@@H](O[C@H]2[C@@H](O)C[C@H](O[C@H]3[C@@H](O)C[C@H](O[C@H]4CC[C@@]5(C)[C@H](CC[C@@H]6[C@@H]5CC[C@]5(C)[C@@H](C7=CC(=O)OC7)CC[C@]65O)C4)O[C@@H]3C)O[C@@H]2C)C[C@H](O)[C@@H]1O [digitoxin]
- inhibition of cell growth, STK11-mutant compared to STK11-wild-type lung cancer cell lines [1]: specifically inhibited the cell growth
- inhibition of cell growth in lung cancer cell lines A549 and A549-STK11 [2]: the cell growth was inhibited
- response of the STK11-restored cell line compared to the STK11-mutant cell line (inhibition of cell growth, TiterBlue) [2]: resistant
- sensitivity (GI50 profile) in 6 cell lines with STK11 mutation potential [3]: relatively high sensitivity

Structure (SMILES): C[C@H]1O[C@@H](O[C@H]2[C@@H](O)C[C@H](O[C@H]3[C@@H](O)C[C@H](O[C@H]4CC[C@@]5(C)[C@H](CC[C@@H]6[C@@H]5C[C@@H](O)[C@]5(C)[C@@H](C7=CC(=O)OC7)CC[C@]65O)C4)O[C@@H]3C)O[C@@H]2C)C[C@H](O)[C@@H]1O [digoxin]
- inhibition of cell growth, STK11-mutant compared to STK11-wild-type lung cancer cell lines [1]: specifically inhibited the cell growth
- inhibition of cell growth in lung cancer cell lines A549 and A549-STK11 [2]: the cell growth was inhibited
- response of the STK11-restored cell line compared to the STK11-mutant cell line (inhibition of cell growth, TiterBlue) [2]: resistant
- sensitivity (GI50 profile) in 6 cell lines with STK11 mutation potential [3]: relatively high sensitivity
- tumor growth in the STK11-mutant model compared to the wild-type STK11-expressing model ([4]; FIGS. 10C, 10D, 10E): selectively reduced
- growth of a tumor ([4]; oral, three times a week for 5 weeks, 60 or 180 ng/kg/body weight, FIG. 10A): reduced in a time-dependent manner
- growth of a tumor [5]: did not have the same effect

Structure (SMILES): C[C@@H]1O[C@@H](O[C@H]2C[C@@H](O)[C@]3(CO)[C@H]4[C@H](O)C[C@]5(C)[C@@H](C6=CC(=O)OC6)CC[C@]5(O)[C@@H]4CC[C@]3(O)C2)[C@H](O)[C@H](O)[C@H]1O [ouabain]
- inhibition of cell growth, STK11-mutant compared to STK11-wild-type lung cancer cell lines [1]: specifically inhibited the cell growth
- inhibition of cell growth in lung cancer cell lines A549 and A549-STK11 [2]: the cell growth was inhibited
- response of the STK11-restored cell line compared to the STK11-mutant cell line (inhibition of cell growth, TiterBlue) [2]: resistant
- sensitivity (GI50 profile) in 6 cell lines with STK11 mutation potential [3]: relatively high sensitivity
